ChEMBL document CHEMBL1143467, “Synthesis of potent and selective serotonin 5-HT1B receptor ligands” (Bioorg Med Chem Lett, 2005)

Columns and labels:
[1] = target: T1, 5-hydroxytryptamine receptor 2C (Homo sapiens, UniProt P28335); test: In vitro binding affinity towards cloned human 5-HT2C receptor using [3H]5-carboximidotryptamine as radioligand
T1 sequence (P28335 whole entry): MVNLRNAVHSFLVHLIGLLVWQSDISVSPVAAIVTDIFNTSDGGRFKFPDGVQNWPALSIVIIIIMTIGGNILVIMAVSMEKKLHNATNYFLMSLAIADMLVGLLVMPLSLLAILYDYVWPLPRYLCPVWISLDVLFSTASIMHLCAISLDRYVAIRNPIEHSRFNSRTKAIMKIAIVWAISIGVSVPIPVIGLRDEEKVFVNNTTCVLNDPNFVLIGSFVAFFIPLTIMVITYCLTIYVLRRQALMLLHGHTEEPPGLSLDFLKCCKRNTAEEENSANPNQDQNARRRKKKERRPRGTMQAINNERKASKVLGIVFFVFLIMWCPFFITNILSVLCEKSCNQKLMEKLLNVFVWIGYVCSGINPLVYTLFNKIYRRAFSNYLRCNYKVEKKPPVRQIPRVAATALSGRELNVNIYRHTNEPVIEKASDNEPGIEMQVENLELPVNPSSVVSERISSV

[2] = target: T2, D(4) dopamine receptor (Homo sapiens, UniProt P21917); test: Affinity towards cloned Dopamine receptor D4
T2 sequence (P21917 whole entry): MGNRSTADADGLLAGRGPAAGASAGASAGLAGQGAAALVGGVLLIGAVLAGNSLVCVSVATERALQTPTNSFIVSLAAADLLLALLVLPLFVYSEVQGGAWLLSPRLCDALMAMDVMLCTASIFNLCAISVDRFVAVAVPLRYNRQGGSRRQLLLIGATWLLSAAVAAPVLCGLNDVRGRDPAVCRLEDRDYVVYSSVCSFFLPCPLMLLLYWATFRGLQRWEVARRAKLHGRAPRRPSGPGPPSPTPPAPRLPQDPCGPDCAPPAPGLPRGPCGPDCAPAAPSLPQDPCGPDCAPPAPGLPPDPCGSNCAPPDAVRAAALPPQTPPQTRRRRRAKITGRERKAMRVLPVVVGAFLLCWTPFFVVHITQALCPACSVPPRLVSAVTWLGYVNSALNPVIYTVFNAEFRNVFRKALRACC

[3] = target: T3, 5-hydroxytryptamine receptor 1A (Homo sapiens, UniProt P08908); test: In vitro binding affinity towards cloned human 5-HT1A receptor using [3H]5-carboximidotryptamine as radioligand
T3 sequence (P08908 whole entry): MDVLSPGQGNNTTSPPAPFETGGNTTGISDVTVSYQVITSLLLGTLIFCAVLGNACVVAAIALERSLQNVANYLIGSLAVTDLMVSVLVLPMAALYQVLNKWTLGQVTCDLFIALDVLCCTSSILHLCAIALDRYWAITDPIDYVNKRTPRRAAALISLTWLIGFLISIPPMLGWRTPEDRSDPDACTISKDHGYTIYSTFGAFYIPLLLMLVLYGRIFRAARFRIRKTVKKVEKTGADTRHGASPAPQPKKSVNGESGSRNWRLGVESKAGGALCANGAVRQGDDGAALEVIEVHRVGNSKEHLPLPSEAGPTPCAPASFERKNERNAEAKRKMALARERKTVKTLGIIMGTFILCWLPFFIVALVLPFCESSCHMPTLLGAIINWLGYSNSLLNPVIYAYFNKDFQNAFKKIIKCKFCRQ

[4] = target: T3, 5-hydroxytryptamine receptor 1A; test: Affinity towards cloned human 5-hydroxytryptamine 1A receptor

Row | Ki [1] [nM] | Ki [2] [nM] | Ki [3] [nM] | Ki [4] [nM] | Compound
1 | 9950 | > 10000 | 15.4 |  | COc1ccccc1N1CCC(C(=O)Nc2ccc(OC)c(N3CCN(C)CC3)c2)CC1
2 | 2830 | > 10000 | 382 |  | COc1ccc(NC(=O)N2CCN(c3ccc(C(F)(F)F)cc3)CC2)cc1N1CCN(C)CC1
3 | > 10000 | > 10000 | 1080 |  | COc1ccc(NC(=O)N2CCN(c3ccc(F)cc3)CC2)cc1N1CCN(C)CC1
4 | 105 | > 10000 | 80 | 70 | COc1ccc(NC(=O)c2ccc(-c3ccc(-c4noc(C)n4)cc3C)cc2)cc1N1CCN(C)CC1 [GR-127935]
5 | 1240 | > 10000 | 335 |  | COc1ccc(NC(=O)N2CCN(c3ccccc3Cl)CC2)cc1N1CCN(C)CC1
6 | 267 | > 10000 | 52.5 |  | COc1ccc(NC(=O)N2CCN(c3ccc(Cl)cc3)CC2)cc1N1CCN(C)CC1
7 | 1080 | > 10000 | 315 |  | COc1ccc(NC(=O)N2CCN(c3ccccc3F)CC2)cc1N1CCN(C)CC1
8 | 6.5 | > 10000 | 405 |  | COc1ccc(NC(=O)N2CCN(c3ccc(-c4ccccc4)cc3)CC2)cc1N1CCN(C)CC1
9 | 1140 | > 10000 | 882 |  | COc1ccc(NC(=O)N2CCN(c3ccc(SC)cc3)CC2)cc1N1CCN(C)CC1
